Patent publication US20240158446A1, “CYCLIC COMPOUND HAVING SELECTIVE INHIBITORY ACTION ON KRAS OVER HRAS AND NRAS” (CHUGAI SEIYAKU KABUSHIKI KAISHA, priority 2021, published 2024)
*1 amine or outer side, *2 acyl side, *3 side chain or, on linkers, in order; H or OH if unused. Where a SMILES comes first, the peptide text is derived from it. Bridges are numbered along the chain shown (N, C = ends). [ ]: non-standard residue; d: D form. The star is where a group is joined. hPhe(3-Cl-4-CF3) = N[C@@H](CCc1ccc(C(F)(F)F)c(Cl)c1)C(=O)O; NPrPhe(4-CF3) = CCCN[C@@H](Cc1ccc(C(F)(F)F)cc1)C(=O)O; NEtPhe(4-CF3) = CCN[C@@H](Cc1ccc(C(F)(F)F)cc1)C(=O)O; hPhe(3,4-Cl2) = N[C@@H](CCc1ccc(Cl)c(Cl)c1)C(=O)O; X9 = CCCN([C@@H](Cc1ccc(F)cc1)C(=O)[*:2])[*:1]; NEtPhe(4-F) = CCN[C@@H](Cc1ccc(F)cc1)C(=O)O; NMePhe(4-F) = CN[C@@H](Cc1ccc(F)cc1)C(=O)O; NMeGly(cPent) = CN[C@H](C(=O)O)C1CCCC1; Hyp = O=C(O)[C@@H]1C[C@@H](O)CN1; NMeD = CN[C@@H](CC(=O)O)C(=O)O; NMeL = CN[C@@H](CC(C)C)C(=O)O; Ac6c = NC1(C(=O)O)CCCCC1; Morpholide = C1CN(*)CCO1; NMeA = CN[C@@H](C)C(=O)O; Ac5c = NC1(C(=O)O)CCCC1; Aze = O=C(O)[C@@H]1CCN1; Ac3c = NC1(C(=O)O)CC1; Aib = CC(C)(N)C(=O)O; Sar = CNCC(=O)O

Tests used:
[1] = molecular target: GDP-bound HRAS wild-type protein (Homo sapiens, UniProt P01112); assay: Binding to HRAS by surface plasmon resonance (SPR), Single Cycle Kinetics; conditions: SPR, GDP-bound HRAS wild-type protein vs GDP-bound KRAS wild-type protein
[2] = molecular target: GDP-bound NRAS wild-type protein (Homo sapiens, UniProt P01111); assay: Binding to NRAS by surface plasmon resonance (SPR), Single Cycle Kinetics; conditions: SPR, GDP-bound NRAS wild-type protein vs GDP-bound KRAS wild-type protein
[3] = molecular target: GDP-bound KRAS wild-type protein (Homo sapiens, UniProt P01116); assay: Binding to KRAS by surface plasmon resonance (SPR), Single Cycle Kinetics; conditions: SPR Single Cycle Kinetics, GDP-bound KRAS wild-type protein, 1:1 binding model; read-out: KRAS KD
Sequence of GDP-bound KRAS wild-type protein (P01116 whole entry): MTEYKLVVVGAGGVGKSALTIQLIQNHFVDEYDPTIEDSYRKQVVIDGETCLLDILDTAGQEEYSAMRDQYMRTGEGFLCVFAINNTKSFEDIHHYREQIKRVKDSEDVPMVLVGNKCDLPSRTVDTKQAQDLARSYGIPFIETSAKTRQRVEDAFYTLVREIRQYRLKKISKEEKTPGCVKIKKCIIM

Sequence of GDP-bound NRAS wild-type protein (P01111 whole entry): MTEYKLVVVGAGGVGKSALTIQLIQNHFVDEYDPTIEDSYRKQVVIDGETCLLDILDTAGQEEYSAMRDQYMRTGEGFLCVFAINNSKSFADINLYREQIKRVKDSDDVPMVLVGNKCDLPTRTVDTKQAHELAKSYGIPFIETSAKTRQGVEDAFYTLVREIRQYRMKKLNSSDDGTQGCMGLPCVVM
Sequence of GDP-bound HRAS wild-type protein (P01112 whole entry): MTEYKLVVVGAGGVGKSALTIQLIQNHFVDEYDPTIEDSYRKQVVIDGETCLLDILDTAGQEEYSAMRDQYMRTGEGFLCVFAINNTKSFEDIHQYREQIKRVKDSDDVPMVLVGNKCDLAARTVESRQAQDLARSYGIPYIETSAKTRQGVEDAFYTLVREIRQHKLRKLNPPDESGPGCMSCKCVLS

| Compound | HRAS/KRAS (ratio of KD value for HRAS to KD value for KRAS) [1] | NRAS/KRAS (ratio of KD value for NRAS to KD value for KRAS) [2] | Kd [3] |
| --- | --- | --- | --- |
| CC[C@H](C)[C@@H]1NC(=O)[C@H](CC(C)C)N(C)C(=O)C[C@@H](C(=O)N2CCOCC2)N(C)C(=O)[C@H](C2CCCC2)N(C)C(=O)C2(CCCC2)NC(=O)[C@@H]2CCCN2C(=O)[C@H](CCc2ccc(C(F)(F)F)c(Cl)c2)NC(=O)CN(C)C(=O)[C@H](Cc2ccc(F)cc2)N(C)C(=O)[C@@H]2CCN2C(=O)[C@H](C)N(C)C1=O [PP0217] ([NMeL]I[NMeA][Aze][NMePhe(4-F)][Sar][hPhe(3-Cl-4-CF3)]P[Ac5c][NMeGly(cPent)][NMeD]-Morpholide; lactam N-11) | C (A compound having a KD ratio of 0.1 or more and less than 3 is denoted as C) | C (A compound having a KD ratio of 0.1 or more and less than 3 is denoted as C) | 0.18 nM |
| CC[C@H](C)[C@@H]1NC(=O)[C@H](CC(C)C)N(C)C(=O)C[C@@H](C(=O)N2CCOCC2)N(C)C(=O)[C@H](C2CCCC2)N(C)C(=O)C2(CCCC2)NC(=O)[C@@H]2CCCN2C(=O)[C@H](CCc2ccc(C(F)(F)F)c(Cl)c2)NC(=O)CN(C)C(=O)[C@H](Cc2ccc(F)cc2)N(CC)C(=O)[C@@H]2CCN2C(=O)[C@H](C)N(C)C1=O [PP0218] ([NMeL]I[NMeA][Aze][NEtPhe(4-F)][Sar][hPhe(3-Cl-4-CF3)]P[Ac5c][NMeGly(cPent)][NMeD]-Morpholide; lactam N-11) | C (A compound having a KD ratio of 0.1 or more and less than 3 is denoted as C) | C (A compound having a KD ratio of 0.1 or more and less than 3 is denoted as C) | 0.2 nM |
| CCCN1C(=O)[C@@H]2CCN2C(=O)[C@H](C)N(C)C(=O)[C@H]([C@@H](C)CC)NC(=O)[C@H](CC(C)C)N(C)C(=O)C[C@@H](C(=O)N2CCOCC2)N(C)C(=O)[C@H](C2CCCC2)N(C)C(=O)C2(CCCC2)NC(=O)[C@@H]2CCCN2C(=O)[C@H](CCc2ccc(C(F)(F)F)c(Cl)c2)NC(=O)CN(C)C(=O)[C@@H]1Cc1ccc(F)cc1 [PP0219] ([NMeL]I[NMeA][Aze][X9][Sar][hPhe(3-Cl-4-CF3)]P[Ac5c][NMeGly(cPent)][NMeD]-Morpholide; lactam N-11) | B (a compound having 3 or more and less than 10 is denoted as B) | C (A compound having a KD ratio of 0.1 or more and less than 3 is denoted as C) | 0.13 nM |
| CC[C@H](C)[C@@H]1NC(=O)[C@H](CC(C)C)N(C)C(=O)C[C@@H](C(=O)N2CCOCC2)N(C)C(=O)[C@H](C2CCCC2)N(C)C(=O)C2(CC2)NC(=O)[C@@H]2CCCN2C(=O)[C@H](CCc2ccc(C(F)(F)F)c(Cl)c2)NC(=O)CN(C)C(=O)[C@H](Cc2ccc(C(F)(F)F)cc2)N(CC)C(=O)[C@@H]2CCN2C(=O)[C@H](C)N(C)C1=O [PP0220] ([NMeL]I[NMeA][Aze][NEtPhe(4-CF3)][Sar][hPhe(3-Cl-4-CF3)]P[Ac3c][NMeGly(cPent)][NMeD]-Morpholide; lactam N-11) | C (A compound having a KD ratio of 0.1 or more and less than 3 is denoted as C) | C (A compound having a KD ratio of 0.1 or more and less than 3 is denoted as C) | 0.35 nM |
| CC[C@H](C)[C@@H]1NC(=O)[C@H](CC(C)C)N(C)C(=O)C[C@@H](C(=O)N2CCOCC2)N(C)C(=O)[C@H](C2CCCC2)N(C)C(=O)C(C)(C)NC(=O)[C@@H]2CCCN2C(=O)[C@H](CCc2ccc(C(F)(F)F)c(Cl)c2)NC(=O)CN(C)C(=O)[C@H](Cc2ccc(C(F)(F)F)cc2)N(CC)C(=O)[C@@H]2CCN2C(=O)[C@H](C)N(C)C1=O [PP0221] ([NMeL]I[NMeA][Aze][NEtPhe(4-CF3)][Sar][hPhe(3-Cl-4-CF3)]P[Aib][NMeGly(cPent)][NMeD]-Morpholide; lactam N-11) | C (A compound having a KD ratio of 0.1 or more and less than 3 is denoted as C) | C (A compound having a KD ratio of 0.1 or more and less than 3 is denoted as C) | 0.19 nM |
| CC[C@H](C)[C@@H]1NC(=O)[C@H](CC(C)C)N(C)C(=O)C[C@@H](C(=O)N2CCOCC2)N(C)C(=O)[C@H](C2CCCC2)N(C)C(=O)C2(CCCCC2)NC(=O)[C@@H]2CCCN2C(=O)[C@H](CCc2ccc(C(F)(F)F)c(Cl)c2)NC(=O)CN(C)C(=O)[C@H](Cc2ccc(C(F)(F)F)cc2)N(CC)C(=O)[C@@H]2CCN2C(=O)[C@H](C)N(C)C1=O [PP0222] ([NMeL]I[NMeA][Aze][NEtPhe(4-CF3)][Sar][hPhe(3-Cl-4-CF3)]P[Ac6c][NMeGly(cPent)][NMeD]-Morpholide; lactam N-11) | C (A compound having a KD ratio of 0.1 or more and less than 3 is denoted as C) | C (A compound having a KD ratio of 0.1 or more and less than 3 is denoted as C) | 0.57 nM |
| CC[C@H](C)[C@@H]1NC(=O)[C@H](CC(C)C)N(C)C(=O)C[C@@H](C(=O)N2CCOCC2)N(C)C(=O)[C@H](C2CCCC2)N(C)C(=O)C2(CCCC2)NC(=O)[C@@H]2CCCN2C(=O)[C@H](CCc2ccc(Cl)c(Cl)c2)NC(=O)CN(C)C(=O)[C@H](Cc2ccc(C(F)(F)F)cc2)N(CC)C(=O)[C@@H]2CCN2C(=O)[C@H](C)N(C)C1=O [PP0223] ([NMeL]I[NMeA][Aze][NEtPhe(4-CF3)][Sar][hPhe(3,4-Cl2)]P[Ac5c][NMeGly(cPent)][NMeD]-Morpholide; lactam N-11) | C (A compound having a KD ratio of 0.1 or more and less than 3 is denoted as C) | C (A compound having a KD ratio of 0.1 or more and less than 3 is denoted as C) | 0.4 nM |
| CCCN1C(=O)[C@@H]2CCN2C(=O)[C@H](C)N(C)C(=O)[C@H]([C@@H](C)CC)NC(=O)[C@H](CC(C)C)N(C)C(=O)C[C@@H](C(=O)N2CCOCC2)N(C)C(=O)[C@H](C2CCCC2)N(C)C(=O)C2(CC2)NC(=O)[C@@H]2CCCN2C(=O)[C@H](CCc2ccc(C(F)(F)F)c(Cl)c2)NC(=O)CN(C)C(=O)[C@@H]1Cc1ccc(C(F)(F)F)cc1 [PP0224] ([NMeL]I[NMeA][Aze][NPrPhe(4-CF3)][Sar][hPhe(3-Cl-4-CF3)]P[Ac3c][NMeGly(cPent)][NMeD]-Morpholide; lactam N-11) | B (a compound having 3 or more and less than 10 is denoted as B) | C (A compound having a KD ratio of 0.1 or more and less than 3 is denoted as C) | 0.22 nM |
| CCCN1C(=O)[C@@H]2CCN2C(=O)[C@H](C)N(C)C(=O)[C@H]([C@@H](C)CC)NC(=O)[C@H](CC(C)C)N(C)C(=O)C[C@@H](C(=O)N2CCOCC2)N(C)C(=O)[C@H](C2CCCC2)N(C)C(=O)C(C)(C)NC(=O)[C@@H]2CCCN2C(=O)[C@H](CCc2ccc(C(F)(F)F)c(Cl)c2)NC(=O)CN(C)C(=O)[C@@H]1Cc1ccc(C(F)(F)F)cc1 [PP0225] ([NMeL]I[NMeA][Aze][NPrPhe(4-CF3)][Sar][hPhe(3-Cl-4-CF3)]P[Aib][NMeGly(cPent)][NMeD]-Morpholide; lactam N-11) | C (A compound having a KD ratio of 0.1 or more and less than 3 is denoted as C) | C (A compound having a KD ratio of 0.1 or more and less than 3 is denoted as C) | 0.23 nM |
| CCCN1C(=O)[C@@H]2CCN2C(=O)[C@H](C)N(C)C(=O)[C@H]([C@@H](C)CC)NC(=O)[C@H](CC(C)C)N(C)C(=O)C[C@@H](C(=O)N2CCOCC2)N(C)C(=O)[C@H](C2CCCC2)N(C)C(=O)C2(CCCCC2)NC(=O)[C@@H]2CCCN2C(=O)[C@H](CCc2ccc(C(F)(F)F)c(Cl)c2)NC(=O)CN(C)C(=O)[C@@H]1Cc1ccc(C(F)(F)F)cc1 [PP0226] ([NMeL]I[NMeA][Aze][NPrPhe(4-CF3)][Sar][hPhe(3-Cl-4-CF3)]P[Ac6c][NMeGly(cPent)][NMeD]-Morpholide; lactam N-11) | B (a compound having 3 or more and less than 10 is denoted as B) | C (A compound having a KD ratio of 0.1 or more and less than 3 is denoted as C) | 0.47 nM |
| CCCN1C(=O)[C@@H]2CCN2C(=O)[C@H](C)N(C)C(=O)[C@H]([C@@H](C)CC)NC(=O)[C@H](CC(C)C)N(C)C(=O)C[C@@H](C(=O)N2CCOCC2)N(C)C(=O)[C@H](C2CCCC2)N(C)C(=O)C2(CCCC2)NC(=O)[C@@H]2CCCN2C(=O)[C@H](CCc2ccc(Cl)c(Cl)c2)NC(=O)CN(C)C(=O)[C@@H]1Cc1ccc(C(F)(F)F)cc1 [PP0227] ([NMeL]I[NMeA][Aze][NPrPhe(4-CF3)][Sar][hPhe(3,4-Cl2)]P[Ac5c][NMeGly(cPent)][NMeD]-Morpholide; lactam N-11) | B (a compound having 3 or more and less than 10 is denoted as B) | C (A compound having a KD ratio of 0.1 or more and less than 3 is denoted as C) | 0.26 nM |
| CCCN1C(=O)[C@@H]2CCN2C(=O)[C@H](C)N(C)C(=O)[C@H]([C@@H](C)CC)NC(=O)[C@H](CC(C)C)N(C)C(=O)C[C@@H](C(=O)N2CCOCC2)N(C)C(=O)[C@H](C2CCCC2)N(C)C(=O)C2(CCCC2)NC(=O)[C@@H]2C[C@@H](OCC)CN2C(=O)[C@H](CCc2ccc(C(F)(F)F)c(Cl)c2)NC(=O)CN(C)C(=O)[C@@H]1Cc1ccc(C(F)(F)F)cc1 [PP0228] ([NMeL]I[NMeA][Aze][NPrPhe(4-CF3)][Sar][hPhe(3-Cl-4-CF3)][Hyp](Et)[Ac5c][NMeGly(cPent)][NMeD]-Morpholide; lactam N-11) | B (a compound having 3 or more and less than 10 is denoted as B) | C (A compound having a KD ratio of 0.1 or more and less than 3 is denoted as C) | 0.037 nM |
